Data published in patent US11835499B2, “Methods of quantifying methylglyoxal-induced nucleic acid adducts” (CITY OF HOPE, priority 2018, dated 2023).

Tests used:
[1] = Stability of CEdG in acidic solution (acid-catalyzed depurination and sidechain isomerization); format: physicochemical; settings: acidic hydrolysis, 1 M AcOH at 37° C.
Protocol: A 1.25 mM solution of CEdG-A, B or dG in 100 μL of 1M AcOH (pH 2.4) was stirred at 37° C. Aliquots (10 μl) were removed periodically and added to 40 μL of 2M TEAA (pH 7.0). HPLC product analyses were performed using an Alltech HS HyperPrep 100 BDS C18 8μ column. A gradient of 0 to 4% CH3CN over 5 min was followed by 6.5% CH3CN over 30 min. TEAA (pH 7) was kept constant at 50 mM. The ratio of free base (CEGuanine or Guanine) to intact nucleoside (CEdG or dG) was calculated by integration of the corresponding HPLC peaks (see inset in FIG. 4). The CEG free base was identified as Peak A by ESI-MS in negative ion mode. C8H8O3N5, observed: m/z 222.064; calculated: m/z 222.063.
The chemical stability of CEdG was examined as an important criterion for evaluating its suitability as a quantitative biomarker. Purified stereoisomers of synthetic CEdG were subjected to acidic conditions (1 M AcOH at 37° C.) and the extent of released free base and diastereomer interconversion was monitored by HPLC as a function of time.

calf thymus DNA = test: Artifactual CEdG formation in calf thymus DNA during workup, with carbonyl scavenger
Protocol: Calf thymus or tissue-extracted DNA (100 μg) was dissolved in 80 μL of autoclaved 18.2 MΩ H2O containing 20 μL of sodium acetate (100 mM, pH 5.5), 20 μL of 1×TBE, 1.5 μL of 50 mM ZnCl2, and 2.37 μL of a 100 mM AG or D-P stock solution. DNA was denatured at 95° C. for 5 min on a PCR heating block and then brought to 4° C. for 5 min. After equilibration to 45° C., 1.5 μL of 10 U/μL nuclease P1 was added. Alkaline phosphatase (4 μL of 8 U/μL), 1 U of bovine phosphodiesterase, and 14 μL of 100 mM CaCl2 were added after 1 hour, and the hydrolysis/dephosphorylation was continued for another 7 hours. […] DNA concentrations were determined by UV spectroscopy (1 OD260=50 μg/ml) and samples were stored at −80° C. prior to MS analyses. A 5 μL aliquot of digest was diluted to 200 μL and used for quantitation of 2′-deoxyguanosine by HPLC integration using a Beckman C18 reverse phase (25 cm×4.6 mm) column (Fullerton, CA). […]
Commercial grade calf thymus DNA was used as a model substrate for developing a protocol for CEdG quantitation in double-stranded DNA. […] Concentrations of AG from 0.5 to 50 mM were added prior to workup, and CEdG levels were measured in order to determine the optimal concentration required to achieve stable, reproducible levels. […]

[2] = test system: DNA extracted from breast tumor or adjacent tissue; test: Artifactual CEdG formation during DNA extraction from human breast tumor and adjacent tissue, with carbonyl scavenger; settings: 10 mM D-penicillamine in two aliquots during cell lysis/DNA isolation and hydrolysis/dephosphorylation
Protocol: Breast tumor and adjacent normal tissue were obtained from the frozen tumor bank of the City of Hope Pathology Core. A pea-sized section (˜100 mg) of tissue was minced and suspended in 1.2 mL of digestion buffer (100 mM NaCl, 10 mM Tris HCl, pH 8, 25 mM EDTA, pH 8, 0.5% SDS, 0.2 mg/mL proteinase K, 10 mM D-penicillamine) and incubated at 50° C. in a water bath for 12-18 h. DNA was then extracted using an equivalent volume of phenol/chloroform/isoamyl alcohol (25:24:1). The aqueous fraction was separated and 0.5 volumes of ammonium acetate and 2 volumes of 100% ethanol were added. The DNA was spooled, washed twice with 70% ethanol, pelleted, and resuspended in autoclaved 18.2 MΩ water. The enzymatic hydrolysis was carried out as described above.
Levels of CEdG in DNA extracted from either breast tumor or adjacent tissue in the absence of carbonyl scavenger were ˜1.5-2.0-fold higher; however, artifactual formation was inhibited by the addition of 10 mM D-penicillamine in two aliquots during both the cell lysis/DNA isolation and hydrolysis/dephosphorylation steps. ^15N-enriched isotopomers of CEdG differing from the unlabeled adducts by 5 amu were synthesized, which provided sufficient mass resolution for accurate and reproducible quantitation using the stable isotope dilution method.

CC(Nc1nc2c(ncn2[C@H]2C[C@H](O)[C@@H](CO)O2)c(=O)[nH]1)C(=O)O (single isomer, unassigned) [CEdG-A, N^2-(1-carboxyethyl)-2′-deoxyguanosine]
racemization of the sidechain stereocenter / interconversion of CEdG isomers A and B [1]: No racemization

CC(Nc1nc2c(ncn2[C@H]2C[C@H](O)[C@@H](CO)O2)c(=O)[nH]1)C(=O)O (single isomer, unassigned) [CEdG-B, N^2-(1-carboxyethyl)-2′-deoxyguanosine]
racemization of the sidechain stereocenter / interconversion of CEdG isomers A and B [1]: No racemization

N=C(N)NN [AG, aminoguanidine]
CEdG adduct levels after hydrolysis/dephosphorylation (calf thymus DNA; 10 mM AG added prior to sample processing, without scavenger 60-66 CEdG/10^6 dG): 45-50 CEdG/10^6 guanines
CEdG levels after mock proteolysis and hydrolysis/dephosphorylation (calf thymus DNA; 10 mM AG in two aliquots, without scavenger 80-100 CEdG/10^6 guanines): drop in measured CEdG levels

CC(C)(S)[C@@H](N)C(=O)O [D-penicillamine]
artifactual CEdG formation [2]: inhibited
